Measurements reported in US9526740B2, “Prochelators as broad-spectrum antimicrobial agents and methods of use” (Duke University, priority 2013, dated 2016).
Converted amounts (≈) assume the structure as drawn. Where two headings read alike, the source gives them in different places.

Legend:
C. neoformans H99 strain [1] = experiment: C. neoformans growth inhibition (OD600 growth curves, MIC); type: cell-based, Cryptococcus neoformans; conditions: for C. neoformans growth with Cu, without H2O2: SC media + 10 μM CuSO4, no H2O2; for MIC: Cryptococcus neoformans, H99STRAIN, growth inhibition of C. neoformans, no Cu added
Description: (§1) Top: Growth of C. neoformans H99 strain in SC media monitored by optical density (OD) over the course of 50 hours, where an increase in OD600 indicates normal growth. […] Bottom: In a follow up experiment to the growth curve assay shown on top, samples were taken after 50 h and plated to determine colony-forming units (CFUs).
The ability of 8-HQ to inhibit C. neoformans growth was tested with respect to metal specificity. The concentration of the indicated metals was held constant at 10 μM and cells were incubated in the presence of escalating doses of 8HQ from 0 to 50 μM. Growth was monitored over a time course in hours (x-axis) and the optical density at 600 nm was plotted at each time (y-axis).
WT C. neoformans H99 strain was grown in SC media+/−10 μM CuSO4 and 8HQ or QBP at indicated concentrations. Growth was monitored by OD600 and normalized to 100% viability for untreated controls after 50 h at 30° C.

C. neoformans H99 strain [2] = experiment: as above; type: cell-based, Cryptococcus neoformans; conditions: for MIC: Cryptococcus neoformans, H99STRAIN; for Growth inhibition of C. neoformans in the presence of 1 mM CuSO4: QBP up to the 100 μM dose tested
S. aureus = S. aureus dose response in tryptic soy broth; type: cell-based; conditions: no supplemental Cu
Description: FIG. 8 is a graph showing that S. Aureus dose response to 8HQ and QBP. Under these conditions, 8HQ inhibits S. Aureus growth at concentrations above ˜150 μM, whereas QBP in nontoxic up to ˜2.5 mM. Supplemental Cu was not added in these experiments, so presumably 8HQ is using Cu present in the tryptic soy broth medium.
(§2) 6. Broad Spectrum Activity The antimicrobial properties of oxine (8HQ) against a broad spectrum of fungal and bacterial pathogens has long been recognized. Taking advantage of this cytotoxic activity while minimizing damage to the host has prevented the application of these compounds to combat infectious disease in humans. […] We tested this hypothesis by comparing the cytotoxicity of 8HQ vs QBP against other microbes. Preliminary results indeed show a differential cytotoxicy of 8HQ vs QBP in S. aureus (FIG. 8), E. coli (FIG. 9) and M. marinum (data not shown). In these preliminary results, supplemental Cu was not added to the growth media, so presumably 8HQ uses the basal Cu present in the media to inflict its growth inhibitory action.

E. coli = E. coli dose response in M9 minimal medium; type: cell-based; conditions: no supplemental Cu
Description: FIG. 9 is a graph showing that E. coli dose response to 8HQ and QBP. Under these conditions, 8HQ inhibits E. coli growth at concentrations above ˜1.5 mM, whereas QBP in nontoxic up to 10 mM. Supplemental Cu was not added in these experiments, so presumably 8HQ is using Cu present in the M9 minimal medium.
as §2

[3] = test system: murine macrophage-like J774A.1 cells; experiment: Viability of macrophage-like cells (CellTiter-Glo)
Description: Cells were seeded at 1×10^5 cells/mL in 96-well plate in DMEM+10% FBS, incubated at 37° C. for 12 h, and assayed for viability with CellTiter-Glo®.

C. neoformans H99 strain [4] = conditions: 10 μM or higher 8HQ in the presence of 10 μM CuSO4
Description: as §1

[5] = test system: MT1 gene in WT C. neoformans; experiment: MT1 gene expression by qPCR normalized to ACT1; type: cell-based, Cryptococcus neoformans; conditions: 30 min; for MT1 induction, compound alone: 10 μM compound, no Cu
Description: FIG. 6 is a graph showing Cu+8HQ (not QBP) increase expression levels of the MT1 gene. An overnight growth of WT C. neoformans was diluted in SC media to an OD600 of 0.2, incubated for 3 h to begin log phase growth, and treated with Cu and/or compound as indicated. After 30 min, cells were harvested and RNA was extracted, with subsequent RT-PCR to produce cDNA. Fold-change of MT1 was quantified using qPCR and normalized to ACT1. The strength of MT1 induction increases with [Cu].
5. 8HQ Increases the Cu Burden on C. neoformans. Our working hypothesis for the mechanism of action of 8HQ is that it increases the microbial burden of bioreactive Cu. If 8HQ translocates Cu into the cell in a bioavailable form, we would expect expression levels of proteins involved in Cu homeostasis to be sensitive to that influx. […] Metallothionein proteins are known to detoxify Cu and other metals by encasing them within cysteine-rich coordination sites. Increased expression of MT1 is consistent with our hypothesis that 8HQ increases bioavailable Cu, which is sensed by the cell in the form of MT1 transcription.

[6] = test system: C. neoformans CTR1/4Δ strain; conditions: YPEG media without Cu supplementation
Description: (§3) FIG. 7 is a graph showing the Effects of 8HQ on growth of C. neoformans mutants. A) WT C. neoformans and a MT1/2Δ[…], strain were grown in SC media with 10 μM CuSO4 and increasing [8HQ].

[7] = test system: C. neoformans MT1/2Δ strain; conditions: SC media with 10 μM CuSO4
Description: as §3

M. marinum = M. marinum cytotoxicity comparison (data not shown); type: cell-based; conditions: no supplemental Cu, preliminary
Text: 6. Broad Spectrum Activity The antimicrobial properties of oxine (8HQ) against a broad spectrum of fungal and bacterial pathogens has long been recognized. Taking advantage of this cytotoxic activity while minimizing damage to the host has prevented the application of these compounds to combat infectious disease in humans.

[8] = test system: IFN-γ and LPS-activated primary bone marrow derived macrophage cells (BMM); experiment: Viability of activated primary bone marrow derived macrophages; conditions: doses up to 50-100 μM, even with supplemental Cu; data not shown
[9] = Tolerability of intraperitoneal administration to mice; type: in vivo; conditions: 2 mg/kg or 10 mg/kg every second day over a two-week period
Text: 4. Toxicity of Prochelator is Activated by H2O2.

[10] = in vitro; 25° C.; cited from earlier work
[11] = growth inhibition of C. neoformans, * 1 mM Cu2+, read-out: MIC (with added Copper(II) Sulfate)
[12] = doses up to 50-100 μM, even with supplemental Cu

Q: What does the source list for Oc1cccc2cccnc12 [8HQ, 8-hydroxyquinoline]?
A: C. neoformans growth with Cu, without H2O2 (C. neoformans H99 strain [1]; 50 h at 30° C.): inhibits growth; C. neoformans growth (OD600), compound tested individually (C. neoformans H99 strain [2]; 100 μM 8HQ alone, SC media, 50 hours): not affected; MIC (C. neoformans H99 strain [2]; read-out: MIC (no Cu added), growth inhibition of C. neoformans, no Cu added): > 100 µM; MIC (C. neoformans H99 strain [2]; read-out: MIC (with added Copper(II) Sulfate), growth inhibition of C. neoformans, * 10 M Cu2+): 5 µM (≈ 0.726 µg/mL); MIC (C. neoformans H99 strain [2]; read-out: MIC of 8HQ with supplemental Cu, 10 μM supplemental Cu (CuSO4)): 5 µM; MIC (C. neoformans H99 strain [2]; read-out: MIC of 8HQ with supplemental iron, 10 μM supplemental iron): 50 µM; MIC (C. neoformans H99 strain [2]; read-out: MIC of 8HQ with supplemental silver, 10 μM supplemental silver): 25 µM; MIC (C. neoformans H99 strain [2]; read-out: MIC of 8HQ with supplemental zinc, 10 μM supplemental zinc): 50 µM; Concentration above which S. aureus growth is inhibited (S. aureus): ~150 µM; Concentration above which E. coli growth is inhibited (E. coli): ~1.5 mM; IC50, cell viability of J774A.1 cells ([3]; medium supplemented with 10 μM CuSO4): sub-μM; IC50 ([3]; read-out: IC50, cell viability of J774A.1 cells, no supplemental Cu): ~5 µM; Colony-forming units (CFUs) after 50 h (C. neoformans H99 strain [4]): absence of CFUs; MT1 induction, compound alone [5]: do not cause robust induction of MT1; MT1 levels, 8HQ+Cu ([5]; 8HQ+Cu (10 pM each)): MT1 levels greater than what is seen with 100 μM CuSO4 alone; Growth of transporter mutant on addition of 8HQ [6]: promotes growth; 8HQ concentration at which growth defect begins [7]: 6.25 µM

Q: Which results are given for Oc1ccc2ncccc2c1 [6HQ, 6-hydroxyquinoline]?
A: MIC (C. neoformans H99 strain [1]): > 100 µM; Growth inhibition of C. neoformans in the presence of 1 mM CuSO4 (C. neoformans H99 strain [2]): does not inhibit growth; MIC (C. neoformans H99 strain [2]; [11]): > 100 µM

Q: What does the source list for CC1(C)C2CC3OB(c4cccc5cccnc45)O[C@]3(C)C1C2 (stereo in doubt) [QBP, quinoline boronic ester]?
A: Toxicity to M. marinum compared with 8HQ (M. marinum): significantly less toxic; MIC (C. neoformans H99 strain [1]): > 100 µM; C. neoformans growth with Cu and H2O2 (C. neoformans H99 strain [1]; QBP/H2O2/Cu, SC media, 50 h at 30° C.): inhibited cell growth as well as 8HQ/Cu; C. neoformans growth with Cu, without H2O2 (C. neoformans H99 strain [1]; 50 h at 30° C.): did not inhibit cell growth; Toxicity to C. neoformans (C. neoformans H99 strain [1]; [12]): nontoxic; Toxicity to BMM [8]: nontoxic; Growth inhibition of C. neoformans in the presence of 1 mM CuSO4 (C. neoformans H99 strain [2]): nontoxic; MIC (C. neoformans H99 strain [2]; [11]): > 100 µM; Concentration up to which nontoxic to S. aureus (S. aureus): ~2.5 mM; Concentration up to which nontoxic to E. coli (E. coli): up to 10 mM; Toxicity to J774A.1 cells [3, 12]: nontoxic; Adverse effects in mice [9]: no obvious adverse affects; Rate constant of conversion to 8HQ upon reaction with H2O2 [10]: 0.25 M⁻¹ s⁻¹; MT1 induction, compound alone [5]: do not cause robust induction of MT1; MT1 response, QBP+Cu ([5]; QBP+Cu (10 μM each)): responds identically to treatment with 10 μM CuSO4 alone

Q: For O=S(=O)([O-])[O-].[Cu+2] [copper, Copper(II) Sulfate], which “C. neoformans growth (OD600), copper tested individually” value (C. neoformans H99 strain [2]; 1 mM copper alone, SC media, 50 hours) is on record?
A: The value was “not affected”.

Q: For Cc1cc(-c2ccc(S(=O)(=O)O)cc2)c2ccc3c(-c4ccc(S(=O)(=O)O)cc4)cc(C)nc3c2n1 [BCS], which “Change in MT1 expression, control chelator” value [5] is on record?
A: Its value is “does not lead to a change in MT1 expression”.
